Holding throughout (assay type): cell-based
Experiment [1] concerns N87 (human gastric carcinoma). Nature of the experiment: Cytotoxicity assay for payloads (MTS), N87. The note with it: 96 h, N87 cells, four days incubation, read-out: Free payload potency (IC50), N87. The procedure:
(§1) Cancer cell lines were obtained from ATCC (Manassas, Va.). N87 (human gastric carcinoma derived from metastatic liver site). HL60 (leukemia) and MDA-MB-361 DYT2 (human breast carcinoma MDA-MB-361) were grown in RPMI 1640 media. All media were supplemented with 10% fetal bovine serum, 1% sodium pyruvate, and 1% L-glutamine (Invitrogen, Grand Island, N.Y.). Human umbilical vein endothelial cells (HUVEC) were obtained from Lonza (Allendale, N.J.) and maintained in EGM2 media supplemented with EGM-2 SingleQuots (Lonza #CC-4176). All cells were maintained in a humidified incubator (37° C., 5% CO2).
(§2) Cytotoxicity Assay Procedure for Payloads
(§3) Cells in 100 μl medium were cultured in a 96-well plate. Cancer cell lines treated with the indicated compounds by adding 50 μl of 3× stocks in duplicate at 10 concentrations. Cells were incubated with compounds for four days, then 30 μl of CellTiter® 96 AQueous One MTS Solution (Promega Cat #G3582) was added to the cells, incubated 1.5 hr at 37° C., then absorbance measured at 490 nm on a Victor plate reader (Perkin Elmer, Waltham, Mass.). Relative cell viability was determined as a percentage of untreated control wells. IC50 values were calculated using four parameter logistic model #203 with XLfit v4.2 (IDBS, Guildford, Surry, UK).

Experiment [2] deals with MDA-MB-361 DYT2 (human breast carcinoma). The experiment can be described thus: Cytotoxicity assay for payloads (MTS), MDA-MB-361 DYT2. The following applies: 96 h, MDA-MB-361 DYT2 cells, four days incubation, read-out: Free payload potency (IC50), DYT2. On the procedure: as §1, §2, §3
Experiment [3] deals with HL60 (leukemia). Nature of the experiment: Cytotoxicity assay for payloads (MTS), HL60. The note with it: Homo sapiens, HL-60, 96 h, HL60 cells, four days incubation, read-out: Free payload potency (IC50), HL60. On the procedure:
as §1, §2, §3

The IC50 is the point on the concentration scale where inhibition reaches its midpoint. For `CC(=O)Oc1cc2c(c3c(C)csc13)[C@H](CCl)CN2C(=O)C12C3C4C1C1C2C3C41C(=O)N1C[C@@H](CCl)c2c1cc(OC(C)=O)c1scc(C)c21` (stereo partly drawn) [Compound 60, pentacyclo[4.2.0.0^˜2,5^˜.0^˜3,8^˜.0^˜4,7^˜]octane-1,4-diylbis[carbonyl(8S)-8-(chloromethyl)-1-methyl-7,8-dihydro-6H-thieno[3,2-e]indole-6,4-diyl]diacetate], the values for the half-maximal inhibitory concentration (IC50) in experiment [1], in experiment [2] and in experiment [3] were 0.122 nM, 0.079 nM and 0.009 nM, respectively.
In the same order, the values of `[2H]C([2H])(CC(=O)N1C[C@@H](CCl)c2c1cc(OC(C)=O)c1scc(C)c21)CC(=O)N1C[C@@H](CCl)c2c1cc(OC(C)=O)c1scc(C)c21` [Compound 87] are 0.036 nM, 0.002 nM and 0.349 nM.
The like results for `[2H]C([2H])(CC([2H])([2H])C(=O)N1C[C@@H](CCl)c2c1cc(OC(C)=O)c1scc(C)c21)C(=O)N1C[C@@H](CCl)c2c1cc(OC(C)=O)c1scc(C)c21` [Compound 88] were, in that order, 0.041 nM, 0.004 nM and 0.41 nM.
The like results for `[2H]C([2H])(C(=O)N1C[C@@H](CCl)c2c1cc(OC(C)=O)c1scc(C)c21)C([2H])([2H])C([2H])([2H])C(=O)N1C[C@@H](CCl)c2c1cc(OC(C)=O)c1scc(C)c21` [Compound 89] were, in that order, 0.041 nM, 0.002 nM and 0.302 nM.

For the origin of these results see patent US11365263B2, “Bifunctional cytotoxic agents containing the CTI pharmacophore” (PFIZER INC., priority 2015, dated 2022).
